Data on 10 compounds can be found in patent US5478818A, “Estradiol derivative-alkylating agent conjugate with reduced hormonal activity, process for preparing the same, compounds useful for the preparation thereof, and growth inhibiting composition containing the conjugate or estradiol derivative” (priority 1993, dated 1995).

Where two headings read alike, the source gives them in different places. A value given as a limit tells only on which side of the number the result lay.

One assay concerns uterus. In words: Estrogen action (uterine weight tests). To be noted: once hypodermically, 3-week-old Wistar female rats, 24 hours; higher = weaker estrogen action. It counts as in vivo. The method, then:
The estrogen action of the conjugate and the estradiol derivative were each examined according to the uterine weight tests. The estrogen action was found diminished.
The test compounds and estradiol dissolved in sesame oil (containing 3% benzyl alcohol) were each administered once hypodermically to 3-week-old Wistar female rats. 24 hours later, the uterus of each test rat was removed and its weight (ratio to the body weight) was measured. From the relation between the uterus weight/body weight ratio and the dosage, the compound dosage that gives a uterus weight/body weight ratio twice that in the control group was determined. The dosages of the test compounds are shown as a ratio to the dosage of estradiol. 3-Benzoyloxy-1,3,5(10)-estratriene-17β-[4-[p-[bis (2-chloroethyl)amino]phenyl]-butyryloxy]acetate was used as a comparative compound.

For a further assay, the system named is DU-145 cells. In words: Growth inhibiting effect in bFGF-added system using DU-145 cells (tritium-labeled thymidine uptake). It counts as cell-based. The method, then:
Uptake of tritium-labeled thymidine was examined in a serum free culture system using bFGF-dependent DU-145 cells. Strong inhibitory effects of the conjugate and the estradiol derivative were shown.
The DU-145 cells were cultured on a 96-well microplate (5,000 cells/well) for 24 hours with a culture medium (200 μl/well; Ham's F-12/MEM-E (98%) and dextran-treated fetal calf serum (2%)). Then the culture medium was replaced with fresh medium containing the test compound (Ham's F-12/MEM-E, bovine serum albumin (0.1%), bovine pituitary-derived bFGF (1 ng/ml) and the test compound of various concentrations). Culture with this medium was continued for 4 days. Thymidine (1 μci/ml, tritium-labeled) was added, and 5 hours layer, the culture medium was removed. The cells were washed with PBS and then washed twice with ice-cold trichloroacetic acid (10%). Then the cells were dissolved in 0.5N sodium hydroxide and neutralized with 0.5N hydrochloric acid. The radioactivity of the neutralized solution was measured by a liquid scintillation counter to determine the growth inhibiting effect (IC50).

A further assay has as its system SC-115 cells. In words: Growth inhibiting effect in testosterone-added system using SC-115 cells (tritium-labeled thymidine uptake). It counts as cell-based. The method, then:
Uptake of tritium-labeled thymidine was examined in a serum free culture system using testosterone-dependent SC-115 cells. Strong inhibitory effects of the conjugate and the estradiol derivatives were shown.
The SC-115 cells were cultured on a 96-well microplate (5,000 cells/well) for 24 hours with a culture medium (200 μl/well; Ham's F-12/MEM-E (98% ), dextran-treated fetal calf serum (2%) and testosterone (1×10^-8 M)). The culture medium was replaced with fresh medium containing the test compound (Ham's F-12/MEM-E, bovine serum albumin (0.1%), testosterone (1×10^-8 M) and test compound of various concentrations). The culture medium was replaced every two days, and culture was continued for 7 days. Thymidine (1 μci/ml, tritium-labeled)was added, and 5 hours later, the culture medium was removed. The cells were washed with PBS and then washed twice with ice-cold trichloroacetic acid (10%). Then the cells were dissolved in 0.5N sodium hydroxide and neutralized with 0.5N hydrochloric acid. The radioactivity of the neutralized solution was measured by a liquid scintillation counter to determine the growth inhibiting effect (IC50).

Setting [1] is: DU-145 cells, bFGF 1 ng/ml, 4 days, read-out: IC50.
The mark [2] stands for this setting: SC-115 cells, testosterone 1×10^-8 M, 7 days, read-out: IC50.
The mark [3] stands for this setting: 168 h, SC-115 cells, testosterone 1×10^-8 M, 7 days, read-out: IC50.

As a reminder, the IC50 is the concentration that inhibits the measured activity by half. For the compound “1-[3-benzoyloxy-1,3,5(10)-estratriene-1-methyl-17β-oxy]-2-[4-[p-[bis(2-hydroxyethyl)amino]phenyl]-butoxy]ethane [Compound I-3]”, in the assay with uterus, the “Dosage that gives a uterus wt/body wt ratio twice that in control group (ratio to estradiol dosage)” value is recorded as > 7000 ratio to estradiol dosage. In addition, the IC50 turned out to be 9200 nM with DU-145 cells (setting [1]) and 200 nM in the assay with SC-115 cells (setting [2]).

Consider `C[C@]12CC[C@@H]3c4ccc(OC(=O)c5ccccc5)cc4CC[C@H]3[C@@H]1CC[C@@H]2OC(=O)COC(=O)CCCc1ccc(N(CCCl)CCCl)cc1` [Comparative compound, 3-Benzoyloxy-1,3,5(10)-estratriene-17β-[4-[p-[bis (2-chloroethyl)amino]phenyl]-butyryloxy]acetate, reference compound], for which, in the assay on uterus, the “Dosage that gives a uterus wt/body wt ratio twice that in control group (ratio to estradiol dosage)” value is 200 ratio to estradiol dosage. For the same compound, the 50% inhibitory concentration (IC50) was more than 10000 nM in the assay on DU-145 cells (Homo sapiens, DU-145, 96 h, read-out: IC50 (ND*: no inhibiting action observed)) and 2600 nM in the assay with SC-115 cells (168 h).

For `C[C@]12CC[C@@H]3c4ccc(OCc5ccccc5)cc4CC[C@H]3[C@@H]1CC[C@@H]2OCCOCCCCc1ccc(N(CCCl)CCCl)cc1` [Compound I-1, 1-[3-benzyloxy-1,3,5(10) -estratriene-17β-oxy]-2-[4-[p-[bis (2-chloroethyl)amino]phenyl]butoxy]ethane], the “Dosage that gives a uterus wt/body wt ratio twice that in control group (ratio to estradiol dosage)” value in the assay with uterus was > 7000 ratio to estradiol dosage. Further, the half-inhibitory concentration (IC50) in the assay with DU-145 cells (setting [1]) worked out at 4600 nM; in the assay with SC-115 cells (setting [2]), 1200 nM.

`C[C@]12CC[C@@H]3c4ccc(OC(=O)c5ccccc5)cc4CC[C@H]3[C@@H]1CC[C@@H]2OCCOCCCCc1ccc(N(CCCl)CCCl)cc1` [Compound I-2, 1-[3-benzoyloxy-1,3,5(10)-estratriene-17β-oxy]-2-[4-[p-[bis (2-chloroethyl)amino]phenyl]butoxy]ethane]: in the assay on uterus, the “Dosage that gives a uterus wt/body wt ratio twice that in control group (ratio to estradiol dosage)” value is on record as > 7000 ratio to estradiol dosage. In addition, the values for the concentration for half-maximal inhibition (IC50) with DU-145 cells (setting [1]) and in the assay on SC-115 cells (setting [2]) were 7800 nM and 1300 nM, respectively.

Consider `C[C@]12CC[C@@H]3c4ccc(OC(=O)c5ccccc5)cc4CC[C@H]3[C@@H]1CC[C@@H]2OCCOCCCCc1ccc(N(CCO)CCO)cc1` [Compound I-4], for which the “Dosage that gives a uterus wt/body wt ratio twice that in control group (ratio to estradiol dosage)” value in the assay on uterus was 1400 ratio to estradiol dosage. Besides, in the assay with SC-115 cells (setting [2]), the IC50 turned out to be 800 nM.

`C[C@]12CC[C@@H]3c4ccc(OCc5ccccc5)cc4CC[C@H]3[C@@H]1CC[C@@H]2OCCOC(=O)CCCc1ccc(N(CCCl)CCCl)cc1` [Compound I-5, 1-[3-benzyloxy-1,3,5(10)-estratriene-17β-oxy]-2-[4-[p-[bis(2-chloroethyl)amino]phenyl]-butyryloxy]ethane]: the “Dosage that gives a uterus wt/body wt ratio twice that in control group (ratio to estradiol dosage)” value in the assay on uterus was > 7000 ratio to estradiol dosage. Also, the half-inhibitory concentration (IC50) in the assay on SC-115 cells (setting [2]) came to 500 nM.

As for `C[C@]12CC[C@@H]3c4ccc(OC(=O)c5ccccc5)cc4CC[C@H]3[C@@H]1CC[C@@H]2OCCOC(=O)CCCc1ccc(N(CCCl)CCCl)cc1` [Compound I-6, 1-[3-benzoyloxy-1,3,5(10)-estratriene-17β-oxy]-2-[4-[p-[bis (2-chloroethyl)amino]phenyl]-butyryloxy]ethane], the “Dosage that gives a uterus wt/body wt ratio twice that in control group (ratio to estradiol dosage)” value in the assay with uterus is on record as > 7000 ratio to estradiol dosage. For the same compound, in the assay with SC-115 cells (setting [2]), the 50% inhibitory concentration (IC50) came out at 1500 nM.

On to `C[C@]12CC[C@@H]3c4ccc(OCc5ccccc5)cc4CC[C@H]3[C@@H]1CC[C@@H]2OCCO` [II-1, 2-[3-benzyloxy-1,3,5 (10) -estratriene-17β-oxy]ethanol], for which the “Dosage that gives a uterus wt/body wt ratio twice that in control group (ratio to estradiol dosage)” value in the assay on uterus is recorded as 200 ratio to estradiol dosage. Also, the half-inhibitory concentration (IC50) in the assay with DU-145 cells (Homo sapiens, 96 h, DU-145 cells, bFGF 1 ng/ml, 4 days, read-out: IC50) was found to be 2900 nM; with SC-115 cells (setting [3]), 200 nM.

In the case of `Cc1cc(OCc2ccccc2)cc2c1[C@H]1CC[C@]3(C)[C@@H](OCCO)CC[C@H]3[C@@H]1CC2` [II-2, 2-[3-benzyloxy-1,3,5(10) -estratriene-1-methyl-17β-oxy]ethanol], in the assay on uterus, the “Dosage that gives a uterus wt/body wt ratio twice that in control group (ratio to estradiol dosage)” value was > 7000 ratio to estradiol dosage. Further, the concentration for half-maximal inhibition (IC50) in the assay with SC-115 cells (setting [3]) worked out at 700 nM.

For `Cc1cc(OC(=O)c2ccccc2)cc2c1[C@H]1CC[C@]3(C)[C@@H](OCCO)CC[C@H]3[C@@H]1CC2` [II-3, 2-[3-benzoyloxy-1,3,5(10) -estratriene-1-methyl-17β-oxy]ethanol], the “Dosage that gives a uterus wt/body wt ratio twice that in control group (ratio to estradiol dosage)” value in the assay with uterus is listed as > 7000 ratio to estradiol dosage. Further, in the assay on SC-115 cells (setting [3]), the IC50 worked out at 1500 nM.
